Structures are written as SMILES. Marks after values point to notes of the source that are not given here.

Assay [1] concerns TH17 cells differentiated in-vitro. Description: TH17 differentiation assay: inhibition of IL-17 secretion. Type of assay: cell-based. Also noted: activity: dose or concentration left out as unconfirmed. The settings on record: Homo sapiens; for inhibition at 1 µM: IL-17 secretion; for activity: TH17 cells differentiated in-vitro, read-out: IL17 secretion (% of DMSO). The text has this: CD4+ T cells were isolated using CD4+ T cell isolation kit (Miltenyi Biotech), activated with CD3/CD28 microbeads and cultured for 7-10 days in the presence of IL-1β, IL-6, IL-21, I-23 and TGFβ and test compounds. Cells cultured with DMSO or without cytokines and/or microbeads were used as negative controls.
Read out: (1) At day 7-10, the supernatants were collected and tested for soluble 1-17. (2) Cells were also harvested and stained for intra-cellular IL-17A. (3) Cells were also stained separately by Annexin/PI for cell viability. (4) Pictures of cultures were taken for each condition.

The next assay concerns HSD rat model. Nature of the assay: High-sucrose diet (HSD) fed rat model: plasma/liver TG, plasma leptin. It is filed as in vivo. The settings on record: HSD rats, 5 mg/kg QD. An excerpt:
A HSD represents an alternative experimental model for obesity and steatosis. In this model, 60-70% of the caloric intake is from simple carbohydrates, and thus, the primary source of increased TG is through DNL.
Male SD rats (6-8 week old) were fed a HSD (D10001, Research Diets Inc.) for six weeks to develop the obese phenotype and then sorted into treatment groups (N=8 each) based on mean body weight.

The next assay has as its system HFD rat model. Description: High fat diet (HFD) fed rat model: steatosis, plasma/liver TG, plasma leptin. It is filed as in vivo. The settings on record: HFD rats, 5 mg/kg QD. An excerpt: Steatosis is caused by the accumulation of triglycerides (TG) in the liver, and as such, decreases in TG may represent a potential marker for activity on steatosis. The obese phenotype of HFD model is dependent on the incorporation of high dietary fat and DNL-derived fat. […] The key endpoints of this study were to evaluate the relationship between dose schedule and exposure with changes in liver steatosis score and liver TG. For these studies, male SD rats (6-8 week old) were fed a high fat diet (D124942, Research Diets Inc.) for four weeks to develop the obese phenotype and then sorted into treatment groups (N=8) based on mean body weight. […] Rosiglitazone 5 mg/kg QD was included as a positive control. Plasma and serum samples were collected weekly throughout the study. After 28 days of treatment, animals were sacrificed and liver and plasma samples were collected. Livers were fixed in formalin, processed for H&E staining, and evaluated by a pathologist specializing in NASH.
Two HFD studies were conducted. […] The second HFD study investigated the endpoints of steatosis and liver and plasma markers of lipogenesis (including TG and FFA).

Consider `O=C(c1ccc(-c2nc3ccc(Cl)cc3o2)cc1)N1CCN(C(=O)C2(O)CC2)CC1` [compound 2], for which, in assay [1], the inhibition at 1 µM turned out to be 79% and the activity amounted to 21%.

As for `Cn1cnc2cc(-c3ccc(C(=O)N4CCN(C(=O)C5(O)CC5)CC4)cc3)ccc21` [compound 9], in assay [1], 1 µM produced 76% inhibition and the activity is 24%.

As for `O=C(c1ccc(-c2cc(Cl)ccc2F)cc1)N1CCN(C(=O)C2(O)CC2)CC1` [compound 3], in assay [1], testing at 1 µM gave an inhibition of 75% and the activity was 25%.

Regarding `Cn1ncc2ccc(-c3ccc(C(=O)N4CCN(C(=O)C5(N)CC5)CC4)cc3)cc21` [compound 5], in assay [1], the inhibition at 1 µM is 74% and the activity came out at 26%.

As to `O=C(c1ccc(-c2nc3ccc(F)cc3o2)cc1F)N1CCN(C(=O)C2(O)CC2)CC1` [compound 6], in assay [1], the inhibition at 1 µM stood at 53% and the activity stood at 47%.

As for `CN(CCOc1ccc(CC2SC(=O)NC2=O)cc1)c1ccccn1` (stereo not shown) [Rosiglitazone], in the assay with HSD rat model (Day 14), the “Plasma TG % Decrease of treatment group (mean) vs. vehicle treated HSD group (mean)” value was 60.6% and the “Plasma TG Raw Data (Mean ± SEM)” value is 1.07 ± 0.10 mmol/L. In addition, in the assay on HSD rat model (Day 26), the “Plasma TG % Decrease of treatment group (mean) vs. vehicle treated HSD group (mean)” value stood at 62.3% and the “Plasma TG Raw Data (Mean ± SEM)” value turned out to be 1.24 ± 0.17 mmol/L. Further, in the assay with HSD rat model (Day 28), the “Liver TG % Decrease of treatment group (mean) vs. vehicle treated HSD group (mean)” value was 41.2 * %, the “Liver TG Raw Data (Mean ± SEM)” value was determined as 8.5 ± 1.5 µmol/g and the “Plasma Leptin (Mean ± SEM)” value was found to be 12.6 ± 2.5 ng/mL. Further, in the assay with HFD rat model (Day 14), the “Plasma TG % Decrease of treatment group (mean) vs. vehicle treated HFD group (mean)” value is recorded as 52.5% and the “Plasma TG Raw Data (Mean ± SEM)” value was found to be 0.48 ± 0.02 mmol/L. Further, in the assay with HFD rat model (Day 26), the “Plasma TG % Decrease of treatment group (mean) vs. vehicle treated HFD group (mean)” value turned out to be 60.0% and the “Plasma TG Raw Data (Mean ± SEM)” value was determined as 0.46 ± 0.05 mmol/L. Further, in the assay with HFD rat model (Day 28), the “Liver TG % Decrease of treatment group (mean) vs. vehicle treated HFD group (mean)” value stood at 70.0%, the “Liver TG Raw Data (Mean ± SEM)” value was determined as 17.2 ± 0.8 µmol/g and the “Plasma Leptin (Mean ± SEM)” value came out at 16.0 ± 1.2 ng/mL.

Regarding `C[C@H]1CN(C(=O)c2ccc(-c3nc4ccc(Cl)cc4o3)cc2)CCN1C(=O)C1(O)CC1` [compound 11], in assay [1], the inhibition at 1 µM is 67% and the activity turned out to be 33%.

`O=C(c1ccc(-c2nc3ccc(F)cc3o2)cc1)N1CCN(C(=O)C2(O)CC2)CC1` [compound 1]: in assay [1], the inhibition at 1 µM was found to be 46% and the activity amounted to 54%.

In the case of `C[C@H]1CN(C(=O)c2ccc(-c3ccc4c(c3)ncn4C)cc2F)CCN1C(=O)C1(O)CC1` [compound 8], in assay [1], the inhibition at 1 µM was 77% and the activity is 23%.

As to `C[C@@H]1CN(C(=O)c2ccc(-c3nc4ccc(F)cc4o3)cc2)CCN1C(=O)C1(O)CC1` [compound 7], in assay [1], the inhibition at 1 µM is 66% and the activity amounted to 34%.

`Cn1cnc2cc(-c3ccc(C(=O)N4CCN(C(=O)C5(O)CC5)CC4)c(F)c3)ccc21` [compound 4]: in assay [1], testing at 1 µM gave an inhibition of 85% and the activity came out at 15%.

By inhibition is commonly meant the relative decrease from the control value, in per cent.

Source of the values: patent publication US20190374536A1, “METHODS OF USING FASN INHIBITORS” (FORMA Therapeutics, Inc., priority 2016, published 2019).
